Data: ChEMBL document CHEMBL1124164, “Synthesis and estrogen receptor selectivity of 1,1-bis(4-hydroxyphenyl)-2-(p-halophenyl)ethylenes” (J Med Chem, 1988)

Tests used:
Estrogen receptor [1] = target: T1, Estrogen receptor (Rattus norvegicus, UniProt P06211+Q62986); assay: In vitro displacement of [3H]estradiol from estrogen receptor of rat uterine cystol; format: protein assay
Estrogen receptor [2] = target: T1, Estrogen receptor
Description: In vitro displacement of 3 nM [3H]4-hydroxytamoxifen from estrogen receptor of rat uterine cystol

[3] = target: T2, Estrogen receptor (Rattus norvegicus) (UniProt P06211+Q62986)
Description: Non specific binding to estrogen receptor in rat uterine cytosol(+/-SD)

[4] = target: T2, Estrogen receptor (Rattus norvegicus); remark: listed apart in the source
Description: Specific binding to estrogen receptor in rat uterine cytosol(+/-SD)

[5] = target: T2, Estrogen receptor (Rattus norvegicus); remark: listed apart in the source
Rattus norvegicus [6] = assay: Distribution of radiolabeled compound in intestinal contents of rat 1 hr after ip administration of dose; fmol equivalents per 100 mg; format: ADME, organism-based; conditions: in vivo
Rattus norvegicus [7] = assay: Distribution of radiolabeled compound in intestinal contents of rat 1 hr after iv administration of dose; fmol equivalents per 100 mg; format: ADME, organism-based; conditions: in vivo
Rattus norvegicus [8] = assay: Distribution of radiolabeled compound in intestinal contents of rat 4 hr after ip administration of dose; fmol equivalents per 100 mg; format: ADME, organism-based; conditions: in vivo
Rattus norvegicus [9] = assay: Distribution of radiolabeled compound in liver of rat 1 hr after ip administration of dose and excess 8 microg of estradiol; fmol equivalents per 100 mg; format: ADME, organism-based; conditions: in vivo
Rattus norvegicus [10] = assay: Distribution of radiolabeled compound in liver of rat 1 hr after ip administration of dose; fmol equivalents per 100 mg; format: ADME, organism-based; conditions: in vivo
Rattus norvegicus [11] = assay: Distribution of radiolabeled compound in liver of rat 1 hr after iv administration of dose; fmol equivalents per 100 mg; format: ADME, organism-based; conditions: in vivo
Rattus norvegicus [12] = assay: Distribution of radiolabeled compound in liver of rat 4 hr after ip administration of dose; fmol equivalents per 100 mg; format: ADME, organism-based; conditions: in vivo
Rattus norvegicus [13] = assay: Distribution of radiolabeled compound in liver of rat 8 hr after ip administration of dose; fmol equivalents per 100 mg; format: ADME, organism-based; conditions: in vivo
Rattus norvegicus [14] = assay: Distribution of radiolabeled compound in plasma of rat 1 hr after ip administration of dose and excess 8 microg of estradiol; fmol equivalents per 100 mg; format: ADME, organism-based; conditions: in vivo
Rattus norvegicus [15] = assay: Distribution of radiolabeled compound in plasma of rat 1 hr after iv administration of dose; fmol equivalents per 100 mg; format: ADME, organism-based; conditions: in vivo
Rattus norvegicus [16] = assay: Distribution of radiolabeled compound in plasma of rat 4 hr after ip administration of dose; fmol equivalents per 100 mg; format: ADME, organism-based; conditions: in vivo
Rattus norvegicus [17] = assay: Distribution of radiolabeled compound in plasma of rat 8 hr after ip administration of dose; fmol equivalents per 100 mg; format: ADME, organism-based; conditions: in vivo
Rattus norvegicus [18] = assay: Distribution of radiolabeled compound in uterus of rat 1 hr after ip administration of dose; fmol equivalents per 100 mg; format: ADME, organism-based; conditions: in vivo
Rattus norvegicus [19] = assay: Distribution of radiolabeled compound in uterus of rat 1 hr after ip administration of dose and excess 8 microg of estradiol; fmol equivalents per 100 mg; format: ADME, organism-based; conditions: in vivo
Rattus norvegicus [20] = assay: Distribution of radiolabeled compound in uterus of rat 1 hr after iv administration of dose; fmol equivalents per 100 mg; format: ADME, organism-based; conditions: in vivo
Rattus norvegicus [21] = assay: Distribution of radiolabeled compound in uterus of rat 4 hr after ip administration of dose; fmol equivalents per 100 mg; format: ADME, organism-based; conditions: in vivo
Rattus norvegicus [22] = assay: Distribution of radiolabeled compound in uterus of rat 8 hr after ip administration of dose; fmol equivalents per 100 mg; format: ADME, organism-based; conditions: in vivo
Rattus norvegicus [23] = assay: Distribution of radiolabeled compound in plasma of rat 1 hr after ip administration of dose; format: ADME, organism-based; conditions: in vivo
Rattus norvegicus [24] = assay: Distribution of radiolabeled compound in intestinal contents of rat 1 hr after ip administration of dose and excess 8 microg of estradiol; fmol equivalents per 100 mg; format: ADME, organism-based; conditions: in vivo
Rattus norvegicus [25] = organism: Rattus norvegicus; assay: Effect of Beta Glucuronidase on recovery of 3H associated with compound from rat intestinal contents; format: ADME, organism-based; conditions: in vivo
Rattus norvegicus [26] = organism: Rattus norvegicus; assay: Effect of Beta Glucuronidase on recovery of 3H associated with compound from rat liver; format: ADME, organism-based; conditions: in vivo
Rattus norvegicus [27] = organism: Rattus norvegicus; assay: Effect of Beta Glucuronidase on recovery of 3H associated with compound from rat plasma; format: ADME, organism-based
Rattus norvegicus [28] = organism: Rattus norvegicus; assay: Effect of Beta Glucuronidase on recovery of 3H associated with compound from rat uterus; format: ADME, organism-based; conditions: in vivo
Rattus norvegicus [29] = organism: Rattus norvegicus; assay: Relative recovery of 3H associated with compound from rat Intestinal contents; format: ADME, organism-based; conditions: in vivo
Rattus norvegicus [30] = organism: Rattus norvegicus; assay: Relative recovery of 3H associated with compound from rat liver; format: ADME, organism-based; conditions: in vivo
Rattus norvegicus [31] = organism: Rattus norvegicus; assay: Relative recovery of 3H associated with compound from rat plasma; format: ADME, organism-based
Rattus norvegicus [32] = organism: Rattus norvegicus; assay: Relative recovery of 3H associated with compound from rat uterus; format: ADME, organism-based; conditions: in vivo
[33] = target: T2, Estrogen receptor (Rattus norvegicus); assay: Ratio of specific binding to non-specific binding at rat estrogen receptor; format: protein assay
Rattus norvegicus [34] = assay: Distribution of radiolabeled compound in intestinal contents of rat 8 hr after ip administration of dose; fmol equivalents per 100 mg; format: ADME, organism-based; conditions: in vivo
[35] = target: T2, Estrogen receptor (Rattus norvegicus); conditions: Uterus, Cytosol
Description: Non specific binding to estrogen receptor in rat uterine cytosol using unlabeled ligand

[36] = target: T2, Estrogen receptor (Rattus norvegicus); conditions: Uterus, Cytosol; remark: listed apart in the source

With `Oc1ccc(C(=Cc2ccc(I)cc2)c2ccc(O)cc2)cc1` as the compound, how does the EC50 (Estrogen receptor [1]) read?
The EC50 was 3.3 nM.

What about the EC50 (Estrogen receptor [2]) of the same compound?
The EC50 was 9.5 nM.

How did the EC50 (Estrogen receptor [1]) turn out when `Oc1ccc(C(=Cc2ccccc2)c2ccc(O)cc2)cc1` was run?
Its EC50 is 3.2 nM.

`Oc1ccc(C(=Cc2ccc(Br)cc2)c2ccc(O)cc2)cc1` was tested. Which EC50 (Estrogen receptor [1]) did it give?
Its EC50 is 10.4 nM.

`Oc1ccc(C(=C(Cl)c2ccccc2)c2ccc(O)cc2)cc1` was tested. Which EC50 (Estrogen receptor [1]) did it give?
The EC50 was 4.5 nM.

How did the Binding [3] turn out when `CCC(=C(c1ccc(O)cc1)c1ccc(OCCN(C)C)cc1)c1ccccc1` was run?
Its Binding is 475 fM uterus-1.

And the Binding [4]?
The Binding was 1080 fM uterus-1.

What about the EC50 (Estrogen receptor [2]) of the same compound?
Its EC50 is 6 nM.

What about the S/N [5] of the same compound?
The S/N was 2.3.

For `Oc1ccc(C(=Cc2ccc(F)cc2)c2ccc(O)cc2)cc1`, which Distribution (Rattus norvegicus [6]) is on record?
The Distribution was 2360 fM/mg.

And the Distribution (Rattus norvegicus [7])?
Its Distribution is 3269 fM/mg.

What about the Distribution (Rattus norvegicus [8]) of the same compound?
The Distribution was 834 fM/mg.

What about the Distribution (Rattus norvegicus [9]) of the same compound?
Its Distribution is 373 fM/mg.

And the Distribution (Rattus norvegicus [10])?
Its Distribution is 251 fM/mg.

What about the Distribution (Rattus norvegicus [11]) of the same compound?
Its Distribution is 318 fM/mg.

What about the Distribution (Rattus norvegicus [12]) of the same compound?
Its Distribution is 97 fM/mg.

What about the Distribution (Rattus norvegicus [13]) of the same compound?
The Distribution was 61 fM/mg.

And the Distribution (Rattus norvegicus [14])?
Its Distribution is 198 fM/mg.

What about the Distribution (Rattus norvegicus [15]) of the same compound?
The Distribution was 144 fM/mg.

And the Distribution (Rattus norvegicus [16])?
Its Distribution is 56 fM/mg.

And the Distribution (Rattus norvegicus [17])?
Its Distribution is 46 fM/mg.

And the Distribution (Rattus norvegicus [18])?
Its Distribution is 496 fM/mg.

What about the Distribution (Rattus norvegicus [19]) of the same compound?
Its Distribution is 302 fM/mg.

And the Distribution (Rattus norvegicus [20])?
Its Distribution is 429 fM/mg.

What about the Distribution (Rattus norvegicus [21]) of the same compound?
The Distribution was 196 fM/mg.

And the Distribution (Rattus norvegicus [22])?
Its Distribution is 87 fM/mg.

And the Distribution (Rattus norvegicus [23])?
The Distribution was 122 fM/mg.

What about the Distribution (Rattus norvegicus [24]) of the same compound?
Its Distribution is 880 fM/mg.

What about the Recovery (Rattus norvegicus [25]) of the same compound?
The Recovery was 95.4%.

And the Recovery (Rattus norvegicus [26])?
Its Recovery is 75.9%.

And the Recovery (Rattus norvegicus [27])?
The Recovery was 92.1%.

What about the Recovery (Rattus norvegicus [28]) of the same compound?
Its Recovery is 95.9%.

And the Recovery (Rattus norvegicus [29])?
The Recovery was 5.3%.

What about the Recovery (Rattus norvegicus [30]) of the same compound?
The Recovery was 15.7%.

What about the Recovery (Rattus norvegicus [31]) of the same compound?
Its Recovery is 28.7%.

What about the Recovery (Rattus norvegicus [32]) of the same compound?
Its Recovery is 84.5%.

And the EC50 (Estrogen receptor [1])?
The EC50 was 2.9 nM.

And the S/N [33]?
The S/N was 3.2.

What about the Distribution (Rattus norvegicus [34]) of the same compound?
Its Distribution is 665 fM/mg.

What about the Binding [35] of the same compound?
The Binding was 305 fM uterus-1.

And the Binding [36]?
The Binding was 971 fM uterus-1.

And the EC50 (Estrogen receptor [2])?
Its EC50 is 170 nM.
